In ChEMBL document CHEMBL1908105, “UDP-glucuronosyltransferases and clinical drug-drug interactions” (Pharmacol Ther, 2005):

What was measured:
[1] = target: UDP-glucuronosyltransferase 1A6 (Homo sapiens, UniProt P19224); assay: Drug glucuronidation reaction catalyzed by human recombinant UGT1A6
[2] = target: T1, UDP-glucuronosyltransferase 1A4 (Homo sapiens, UniProt P22310); assay: (§1) Drug glucuronidation reaction catalyzed by human recombinant UGT1A4
T1 sequence (P22310 whole entry): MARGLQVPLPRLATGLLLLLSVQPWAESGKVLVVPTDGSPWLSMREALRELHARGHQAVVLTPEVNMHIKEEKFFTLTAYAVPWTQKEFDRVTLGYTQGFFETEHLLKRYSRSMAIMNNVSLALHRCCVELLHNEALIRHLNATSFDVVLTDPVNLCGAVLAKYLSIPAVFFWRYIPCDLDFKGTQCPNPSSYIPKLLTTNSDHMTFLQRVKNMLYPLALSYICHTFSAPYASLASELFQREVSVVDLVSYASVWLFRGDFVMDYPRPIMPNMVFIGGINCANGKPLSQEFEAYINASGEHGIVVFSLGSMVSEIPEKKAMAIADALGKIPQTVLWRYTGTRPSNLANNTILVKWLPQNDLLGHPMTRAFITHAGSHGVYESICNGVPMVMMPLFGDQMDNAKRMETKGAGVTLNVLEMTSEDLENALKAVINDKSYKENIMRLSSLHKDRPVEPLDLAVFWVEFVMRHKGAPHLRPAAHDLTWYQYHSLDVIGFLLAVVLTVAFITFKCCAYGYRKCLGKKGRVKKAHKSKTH

UGT1A4 = UGT1A4 (Homo sapiens, UniProt P22310); assay: as §1; conditions: recombinant UGT1A4
[3] = target: UDP-glucuronosyltransferase 2B28 (Homo sapiens, UniProt Q9BY64); assay: Drug glucuronidation reaction catalyzed by human recombinant UGT2B28
Sequence of UDP-glucuronosyltransferase 2B28 (Q9BY64 whole entry): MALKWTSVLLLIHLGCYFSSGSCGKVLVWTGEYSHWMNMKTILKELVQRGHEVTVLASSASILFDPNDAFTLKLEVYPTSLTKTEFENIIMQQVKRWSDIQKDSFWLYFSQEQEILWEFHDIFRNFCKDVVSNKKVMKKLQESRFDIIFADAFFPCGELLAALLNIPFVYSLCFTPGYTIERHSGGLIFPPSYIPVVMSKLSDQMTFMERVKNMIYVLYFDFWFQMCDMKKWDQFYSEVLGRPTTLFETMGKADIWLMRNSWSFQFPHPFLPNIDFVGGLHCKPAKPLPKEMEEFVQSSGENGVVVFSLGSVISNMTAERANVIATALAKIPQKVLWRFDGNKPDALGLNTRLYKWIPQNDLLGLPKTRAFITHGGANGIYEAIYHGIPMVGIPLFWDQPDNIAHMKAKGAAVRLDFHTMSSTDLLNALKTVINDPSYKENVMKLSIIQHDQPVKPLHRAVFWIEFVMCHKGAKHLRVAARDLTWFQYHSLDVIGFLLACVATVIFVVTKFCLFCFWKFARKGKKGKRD

Sequence of UDP-glucuronosyltransferase 1A6 (P19224 whole entry): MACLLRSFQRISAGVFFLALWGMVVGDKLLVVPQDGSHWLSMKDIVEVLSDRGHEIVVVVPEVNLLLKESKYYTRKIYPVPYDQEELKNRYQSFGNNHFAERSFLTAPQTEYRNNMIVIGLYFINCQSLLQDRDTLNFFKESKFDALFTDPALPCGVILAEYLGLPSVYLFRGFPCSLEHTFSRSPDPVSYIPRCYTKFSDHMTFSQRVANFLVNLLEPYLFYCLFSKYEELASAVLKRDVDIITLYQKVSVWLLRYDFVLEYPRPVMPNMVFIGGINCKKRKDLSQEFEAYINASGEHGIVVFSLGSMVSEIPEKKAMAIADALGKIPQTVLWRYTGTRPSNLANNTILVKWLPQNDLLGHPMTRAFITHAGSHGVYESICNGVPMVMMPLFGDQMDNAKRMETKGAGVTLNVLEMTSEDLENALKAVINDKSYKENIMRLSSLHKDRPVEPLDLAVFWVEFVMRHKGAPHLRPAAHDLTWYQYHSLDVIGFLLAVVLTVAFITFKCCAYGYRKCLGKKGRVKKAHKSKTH

Question: How did the Vmax [1] turn out when CC(=O)Nc1ccc(O)cc1 [ACETAMINOPHEN] was run?
Answer: The Vmax was 100 pmol/min/mg protein.

Question: Cc1cc2c(s1)Nc1ccccc1N=C2N1CCN(C)CC1 [OLANZAPINE] was tested. Which Vmax [2] did it give?
Answer: Its Vmax is 2370 pmol/min/mg protein.

Question: What about the Km (UGT1A4) of the same compound?
Answer: The Km was 227 µM.

Question: Which Vmax [3] does the source give for C[C@]12CC[C@@H]3c4ccc(O)cc4CC[C@H]3[C@@H]1CC[C@@H]2O [ESTRADIOL] here?
Answer: Its Vmax is less than 1 pmol/min/mg protein.
